Key:
[1] = molecular target: T1, serotonin 1A receptors ([^3H]8-OH-DPAT binding, hippocampus membrane preparation) (Rattus norvegicus, UniProt P19327); experiment: [^3H]8-OH-DPAT binding test (Test Example 2); conditions: [^3H]8-OH-DPAT 2 nM, test concentration not given
T1 construct: 146 μl of the hippocampus membrane preparation (80 μg/tube in terms of protein); from tissue; host or cells: rat hippocampus membrane preparation
T1 sequence (P19327 1-422): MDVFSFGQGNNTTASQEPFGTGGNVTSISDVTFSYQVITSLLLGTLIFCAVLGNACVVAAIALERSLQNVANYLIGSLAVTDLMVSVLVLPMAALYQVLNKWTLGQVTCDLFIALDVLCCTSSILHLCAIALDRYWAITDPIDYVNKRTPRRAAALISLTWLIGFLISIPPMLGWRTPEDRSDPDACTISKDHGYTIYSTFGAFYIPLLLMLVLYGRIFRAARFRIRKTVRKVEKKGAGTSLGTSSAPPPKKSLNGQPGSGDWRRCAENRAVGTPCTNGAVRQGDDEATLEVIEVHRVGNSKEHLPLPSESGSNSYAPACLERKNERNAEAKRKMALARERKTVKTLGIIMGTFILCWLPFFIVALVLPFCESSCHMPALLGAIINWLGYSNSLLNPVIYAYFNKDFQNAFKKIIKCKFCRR
Procedure: [^3H]8-OH-DPAT Binding Test
The test was carried out according to the method^2 of Hall M. D. et al. After about one week of pre-breeding, a male rat was decapitated and the brain was immediately removed. The hippocampus was dissected from the brain on ice, and 50 mM Tris-HCl (pH=7.4) was added to the hippocampus in an amount of 40 times the wet weight of the hippocampus, followed by homogenization (3 min, 1 stroke/min) in an ice bath by the use of a Teflon-glass homogenizer. Then, the homogenate was centrifuged (4° C.) at 40,000×g for 10 minutes. The resulting precipitate was dispersed in an ice-cooled buffer solution (50 mM Tris-HCl (pH=7.4)) by the use of Hiscotron™, followed by centrifugation (4° C.) at 40,000×g for 10 minutes. Moreover, the resulting precipitate was re-suspended and the washing procedure was repeated once. The precipitate thus obtained was dispersed in an ice-cooled buffer solution (50 mM Tris-HCl (pH=7.4)) by the use of Hiscotron™, and the resulting dispersion was incubated at 37° C. for 1 hour and then centrifuged (4° C.) at 40,000×g for 10 minutes. Furthermore, the resulting precipitate was re-suspended and the washing procedure was repeated once. The membrane preparation thus obtained was suspended in the same buffer solution as described above, and then subjected to cryopreservation at −80° C.
Measurement was carried out by using a liquid for reaction (total volume: 200 μl) obtained by adding 50 μl of [^3H]8-OH-DPAT (final concentration: 2 nM), 4 μl of a solution of a test drug and 146 μl of the hippocampus membrane preparation (80 μg/tube in terms of protein) to a buffer solution containing 50 mM Tris-HCl (pH=7.4) and 4 mM CaCl2. After the liquid for reaction was allowed to react at room temperature for 30 minutes, it was immediately filtered by suction at a low pressure through glass fiber filter. The glass fiber filter was washed twice with 250 μl of a buffer solution and then added to a glass vial containing 4 ml of ACS-II (Amersham), and the radioactivity bound to receptors and remaining on the filter was measured with a liquid scintillation counter. Non-specific binding of [^3H]8-OH-DPAT was defined as the amount of [^3H]8-OH-DPAT bound in the presence of 1 μM 8-OH-DPAT.
Rate of binding inhibition was calculated by the following equation:
Rate of binding inhibition (%)=100−100×{[amount of [^3H]8-OH-DPAT bound in the presence of test substance]−[amount of [^3H]8-OH-DPAT bound in the presence of 1 μM 8-OH-DPAT]/[amount of [^3H]8-OH-DPAT bound in the absence of test substance]−[amount of [^3H]8-OH-DPAT bound in the presence of 1 μM 8-OH-DPAT]}

## COc1ccc(Br)c(CC2CCN(CC[C@H]3CC[C@@H](CCO)CC3)CC2)c1.Cl [Example 64, cis-2-(4-(2-(4-(2-Bromo-5-methoxybenzyl)-piperidin-1-yl)ethyl)cyclohexyl)ethanol Hydrochloride]
[1]
  Rate of inhibition of [^3H]8-OH-DPAT binding (%): 96%
other
  melting point: 273 °C

## COc1ccc(Br)c(CC2CCN(CC3CCc4ccccc4N3)CC2)c1.Cl.Cl (stereo not shown) [Example 69, 2-((4-(2-Bromo-5-methoxybenzyl)piperidin-1-yl)methyl)-1,2,3,4-tetrahydroquinoline Dihydrochloride]
[1]
  Rate of inhibition of [^3H]8-OH-DPAT binding (%): 96%

## CCN(CCOC)[C@H]1CC[C@H](CCN2CCC(Cc3cc(OC)ccc3Br)CC2)CC1.Cl.Cl [Example 58, trans-N-(4-(2-(4-(2-bromo-5-methoxybenzyl)-piperidin-1-yl)ethyl)cyclohexyl)-N-ethyl-N-(2-methoxyethyl)amine Dihydrochloride]
[1]
  Rate of inhibition of [^3H]8-OH-DPAT binding (%): 92%
other
  melting point: 78 °C

## CCN[C@H]1CC[C@H](CCN2CCC(Cc3cc(OC)ccc3Br)CC2)CC1.Cl.Cl [Example 38, trans-N-(4-(2-(4-(2-bromo-5-methoxybenzyl)-piperidin-1-yl)ethyl)cyclohexyl)-N-ethylamine Dihydrochloride]
[1]
  Rate of inhibition of [^3H]8-OH-DPAT binding (%): 96%

## CC(C)Oc1ccc(Br)c(CC2CCN(CC3CCc4ccccc4N3)CC2)c1.Cl.Cl (stereo not shown) [Example 65, 2-((4-(2-Bromo-5-isopropoxybenzyl)piperidin-1-yl)methyl)-1,2,3,4-tetrahydroquinoline Dihydrochloride]
[1]
  Rate of inhibition of [^3H]8-OH-DPAT binding (%): 60%

## Cl.Cl.Clc1ccc(Br)c(CC2CCN(CC3CCc4ccccc4N3)CC2)c1 (stereo not shown) [Example 67, 2-((4-(2-Bromo-5-chlorobenzyl)piperidin-1-yl)methyl)-1,2,3,4-tetrahydroquinoline Dihydrochloride]
[1]
  Rate of inhibition of [^3H]8-OH-DPAT binding (%): 73%
other
  melting point: 227 °C

## COc1ccc(Br)c(CC2CCN(CC[C@H]3CC[C@H](NC(=O)C(F)(F)F)CC3)CC2)c1.Cl [Example 48, trans-N-(4-(2-(4-(2-bromo-5-methoxybenzyl)-piperidin-1-yl)ethyl)cyclohexyl)-2,2,2-trifluoro-acetamide Hydrochloride]
[1]
  Rate of inhibition of [^3H]8-OH-DPAT binding (%): 90%
other
  melting point: 230 °C

## COc1ccc(Br)c(CC2CCN(CC[C@H]3CC[C@H](NS(=O)(=O)N(C)C)CC3)CC2)c1.Cl [Example 47, trans-N′-(4-(2-(4-(2-bromo-5-methoxybenzyl)-piperidin-1-yl)ethyl)cyclohexyl)-N,N-dimethylsulfamide hydrochloride]
[1]
  Rate of inhibition of [^3H]8-OH-DPAT binding (%): 95%
other
  melting point: 214 °C

## COc1ccc(Br)c(CC2CCN(CC3CNc4ccccc4C3)CC2)c1.Cl.Cl (stereo not shown) [Example 70, 3-((4-(2-Bromo-5-methoxybenzyl)piperidin-1-yl)methyl)-1,2,3,4-tetrahydroquinoline Dihydrochloride]
[1]
  Rate of inhibition of [^3H]8-OH-DPAT binding (%): 86%

## CCN(CC)[C@H]1CC[C@@H](CCCN2CCC(Cc3cc(OC)ccc3Br)CC2)CC1.Cl.Cl [Example 54, cis-N-(4-(3-(4-(2-bromo-5-methoxybenzyl)-piperidin-1-yl)propyl)cyclohexyl)-N,N-diethylamine Dihydrochloride]
[1]
  Rate of inhibition of [^3H]8-OH-DPAT binding (%): 99%

## CO[C@H]1CC[C@H](CCN2CCC(Cc3cc(OC(C)C)ccc3Br)CC2)CC1.Cl [Example 44, trans-4-(2-Bromo-5-isopropoxybenzyl)-1-(2-(4-methoxycyclohexyl)ethyl)piperidine Hydrochloride]
[1]
  Rate of inhibition of [^3H]8-OH-DPAT binding (%): 92%
other
  melting point: 196 °C

## COc1ccc(Br)c(CC2CCN(CCC3CCN(CCO)CC3)CC2)c1.Cl.Cl [Example 6, 2-(4-(2-(4-(2-Bromo-5-methoxybenzyl)-1-piperidinyl)ethyl)-1-piperidinyl)ethanol Dihydrochloride]
[1]
  Rate of inhibition of [^3H]8-OH-DPAT binding (%): 71%

## CCN([C@H]1CC[C@H](CCCN2CCC(Cc3cc(OC(C)C)ccc3Br)CC2)CC1)S(C)(=O)=O.Cl [Example 46, trans-N-(4-(3-(4-(2-bromo-5-isopropoxy-benzyl)piperidin-1-yl)propyl)cyclohexyl)-N-ethylmethanesulfonamide Hydrochloride]
[1]
  Rate of inhibition of [^3H]8-OH-DPAT binding (%): 65%

Source: US20050065140A1, “Serotonine reuptake inhibitor” (priority 2001, published 2005)
